Laboratory results from patent US10449230B2, “Polymyxin derived cell penetrating scaffolds” (The Regents of the University of California, priority 2016, dated 2019).
Numbered stars: 1 amine (or outer) side, 2 acyl side, 3 side chain; on linkers, the order of the positions; unused ones are H or OH. Bridge positions count the residues as written; N and C are the ends. Square brackets hold non-standard residues; d marks the D form. Peptide text beside a SMILES is read from it. * marks the point of attachment. Biotin = O=C1N[C@H]2[C@H](CS[C@H]2CCCCC(=O)*)N1; X1 = O=C(CCCc1cn(CCOCCOCCOCCN[*:1])nn1)[*:2]; Agb = N=C(N)NCC[C@H](N)C(=O)O; Dab = NCC[C@H](N)C(=O)O

Legend:
[1] = tested on: HEK-293 cells; details: HEK-293, 72 h, concentrations as high as 0.5 μM, FIG. 3B
Description: (§1) Cell titer blue was added and incubated an additional 4 hours. Cell viability was calculated by measuring the fluorescence intensity at 560/590.

[2] = tested on: CHO-K1 cells; details: CHO-K1, 72 h, concentrations as high as 0.5 μM, FIG. 3A
Description: as §1

[3] = tested on: CHO-K1 cells; experiment: Cytoplasmic delivery of streptavidin-saporin, CellTiter-Blue viability; assay type: cell-based, Chinese hamster; details: CHO-K1, four days at 37° C., FIG. 8
Description: The biotinylated transporters were incubated with ST-Sap in a 5:1 molar ratio for 20 min at ambient temperature then diluted with F-12 cell culture medium to give final conjugate solutions. CHO-K1 and pgsA cells were incubated with 100 μL of the corresponding conjugate for 4 days at 37° C. under an atmosphere of 5% CO2. CellTiter-Blue (20 μL) was added to the medium and incubated for an additional 4 h to measure viability.
The ability of bPMB and bGPMB to deliver cargo to the cytosol was evaluated by conjugating the transporter to streptavidin-saporin (ST-SAP) and incubating the conjugate with CHO-K1 or pgsA cells at various concentrations. CHO-K1 cells were incubated with transporter-streptavidin-saporin conjugates at 37° C.
Saporin (no streptavidin) was incubated with bPMB or bGPMB for 20 min then diluted to final saporin concentrations and added to CHO-K1 cells. After four days, the number of viable cells was determined using CellTiter-Blue assay and the fluorescence intensity at was measured at 560/590 (FIG. 9A). pgsA cells were incubated with transporter-streptavidin-saporin conjugates at 37° C. After four days, the number of viable cells was determined using CellTiter-Blue and fluorescence intensity was measured at 560/590 (FIG. 9B).

[4] = tested on: CHO-K1 cells; experiment: Cellular uptake of transporter-ST-PE-Cy5 conjugates, flow cytometry (MFI); assay type: cell-based, Chinese hamster; details: for Uptake of ST-PE-Cy5 incubated with transporter lacking the biotin moiety: CHO-K1, 37° C., 1 h, FIG. 4
Description: The polymyxin derivatives (2.5 μM in PBS) were incubated with ST-PE-Cy5 (0.5 μM in PBS) for 20 min at ambient temperature then diluted with F-12 cell culture medium to give final conjugate solutions.
Cells were plated onto 24-well plates (100 000 cells/well) and grown for 24 h to about 80% confluence. Cells were washed with PBS and incubated with 300 μL of the corresponding conjugate for 1 h at 37° C. under an atmosphere of 5% CO2. Cells were washed twice with PBS, detached with 50 μL of trypsin-EDTA for uptake studies or 100 μL Versene (EDTA) for binding studies, diluted with PBS containing 0.1% BSA, and analyzed by FACS. Cellular uptake was quantified by the mean fluorescence intensity; raw data was interpreted by using FlowJo v8.8.6.
Wild type CHO-K1 cells were incubated with the carrier-ST-PE-Cy5 conjugate for 1 h at 37° C., detached with trypsin/EDTA, and analyzed by flow cytometry (see, e.g., H. O'Dowd, B. Kim, P. Margolis, W. Wang, C. Wu, S. L. Lopez and J. Blais, Tetrahedron Lett., 2007, 48, 2003-2005). […] Cellular uptake of GPMB and PMB conjugated to ST-PE-Cy5 was measured in CHO-K1, HEK-293, and HEP-3B cells. The cells were incubated with conjugate (5 nM) at 37° C. for 1 h. Mean fluorescence intensity was measured by flow cytometry. The background signal from untreated cells was subtracted (FIG. 2).
The mixtures were then added to CHO-K1 cells and incubated at 37° C. for 1 h. Mean fluorescence intensity was measured by flow cytometry and the background signal from untreated cells was subtracted.

[5] = tested on: CHO-K1 cells; details: liposomes with 10 mol % carrier, 0.30, 0.50 or 0.70 μg/mL, 1 h at 37° C., FIG. 10
Description: A mixture (30 mg total) of DOPC, DOPE, and cholesterol (73:11:16) was dissolved in chloroform to a final volume of 1 mL and evaporated in a round flask and further dried under high vacuum overnight to form a thin lipid layer. The resulting film was hydrated for 15 min at 37° C. with 1 mL of PBS containing 100 μM Cy5. The mixture was sonicated for 30 s, subjected to six freeze/thaw cycles using a dry ice/acetone bath and a water bath at 37° C. Lastly, the suspension was extruded 17 times through a polycarbonate membrane (pore size 100 nm) at room temperature. Non-encapsulated dye was removed by gravitational gel filtration (Sephadex G-50). Lipid concentration was determined adapting the Stewart method. […] Unincorporated PMB or GPMB was removed via centrifuge gel filtration (Sephadex G-50) (see, e.g., D. W. Fry, J. C. White and I. D. Goldman, Anal. Biochem., 1978, 90, 809-815).
To examine the significance of the cyclic peptide as a delivery module, rather than the lipophilic tail, and the versatility of PMB and GPMB as transporters, liposomes containing the fluorescent Cy5 dye were mixed with 10 mol % PMB or GPMB. Uptake was evaluated using flow cytometry and the size and zeta potential of the liposomes were measured using dynamic light scattering (DLS) and are shown in Table 1 below. […]

CC(C)C[C@@H]1NC(=O)[C@@H](Cc2ccccc2)NC(=O)[C@H](CCNC(=N)N)NC(=O)[C@@H](NC(=O)[C@H](CCNC(=N)N)NC(=O)[C@@H](NC(=O)[C@H](CCNC(=N)N)NC(=O)CCCc2cn(CCOCCOCCOCCNC(=O)CCCC[C@@H]3SC[C@@H]4NC(=O)N[C@@H]43)nn2)[C@@H](C)O)CCNC(=O)[C@H]([C@@H](C)O)NC(=O)[C@H](CCNC(=N)N)NC(=O)[C@H](CCNC(=N)N)NC1=O [bGPMB, biotinylated guanidinylated polymyxin B] (Biotin-[X1][Agb]T[Agb][Dab][Agb][dF]L[Agb][Agb]T; lactam 5-C)
Cytotoxicity (Cell-Titer Blue) [1]: no cytotoxicity
Cytotoxicity (Cell-Titer Blue) [2]: no cytotoxicity

CC(C)C[C@@H]1NC(=O)[C@@H](Cc2ccccc2)NC(=O)[C@H](CCN)NC(=O)[C@@H](NC(=O)[C@H](CCN)NC(=O)[C@@H](NC(=O)[C@H](CCN)NC(=O)CCCc2cn(CCOCCOCCOCCNC(=O)CCCC[C@@H]3SC[C@@H]4NC(=O)N[C@@H]43)nn2)[C@@H](C)O)CCNC(=O)[C@H]([C@@H](C)O)NC(=O)[C@H](CCN)NC(=O)[C@H](CCN)NC1=O [bPMB, biotinylated polymyxin B] (Biotin-[X1][Dab]T[Dab][Dab][Dab][dF]L[Dab][Dab]T; lactam 5-C)
Cytotoxicity (Cell-Titer Blue) [1]: no cytotoxicity
Cytotoxicity (Cell-Titer Blue) [2]: no cytotoxicity

Octaarginine [bArg8]
LD50 of transporter-streptavidin-saporin conjugate [3]: 3.1 nM
Cellular uptake of ST-PE-Cy5 conjugate compared with bPMB and bGPMB ([4]; CHO-K1, 1 h at 37° C., MFI, FIG. 1A): approximately three-fold higher uptake

Polymyxin B [PMB, reference compound]
Delivery of cargo containing liposomes into wild-type CHO cells [5]: enhance delivery
Uptake of ST-PE-Cy5 incubated with transporter lacking the biotin moiety [4]: No enhanced uptake

guanidinylated polymyxin B [GPMB]
Delivery of cargo containing liposomes into wild-type CHO cells [5]: enhance delivery
Uptake of ST-PE-Cy5 incubated with transporter lacking the biotin moiety [4]: No enhanced uptake
